From patent US20140023650A1, “Methods of Treating and/or Preventing Cell Proliferation Disorders with IL-17 Antagonists” (INSTITUT MEDICAL DE LA SANTE ET DE LA RECHERCHE MEDICALE, priority 2010, published 2014)

Legend:
B cell clones = test: Cell viability of B cell clones (propidium iodide uptake, flow cytometry); type: cell-based, human; conditions: doxorubicin 300 nM, 96 h, no antibodies
Description: FIG. 4: Autocrine production of IL-17 and BAFF protects B cell clones from doxorubicin-mediated cell death. (A) B cell clones secrete IL-17 and BAFF. B104 human B lymphoma cells and B cell clones DN1#1, DN1#2, DN1#3, DN1#4, DN2#5 and DN2#6 (see FIG. 3, above) were seeded at 10^5 cell/mL in medium alone and maintained in culture for 5 days. At day 5, IL-17 and BAFF concentration in cell culture supernatants was determined by ELISA. (B-1 to B-6) IL-17 and BAFF neutralizing antibodies induce B cell clone apoptosis and increase doxorubicin-induced apoptosis. […] Viability was assessed by propridium iodide uptake and flow cytometry analysis. […] B104 human B lymphoma cell line, either non-treated (NT) or pre-treated for 24 h in the presence of CpG2006 (CpG, 2.5 μg/mL) or IL-17 (1 ng/mL) and BAFF (100 ng/mL) as indicated, as well as clones DN1#1, DN1#2, DN1#3, DN1#4, DN2#5 and DN2#6 were treated or not with doxorubicin (300 nM) for 6 h and then p53, p21 and actin protein expression was assessed by immunoblotting. […]
FIG. 8: Neutralizing antibodies to IL-17, BAFF, IL-6, and IL-10 induce apoptosis and sensitize B cell clones to chemotherapy (doxorubicin). […] Viability was assessed by propridium iodide uptake and flow cytometry analysis.
Cell viability was assessed by propidium iodide (Sigma) uptake. Data were acquired on a FACSCalibur (BD Biosciences) and were analyzed with Flowio software (TreeStar).

[1] = tested on: patients with Rheumatoid Arthritis; conditions: cited from earlier work
SLE patients = conditions: cited from earlier work
MCF10A [2] = test: Transwell migration and Matrigel invasion assays, MCF10A; type: cell-based, human; conditions: for increase in cell invasion / increase in cell migration: TNFα 100 ng/mL or TGFβ 8 ng/mL, 9 days
Description: (§1) FIG. 16: IL-17 induces Epithelial to Mesenchymal Transition (EMT) via Twist-1 upregulation in mammary epithelial cells which increases cell migration, invasion and stemness. Human immortalized mammary epithelial cells (MCF10A) cells were untreated (NT) or treated with TNFα (100 ng/mL), TGF (8 ng/mL) or IL-17 (10 ng/mL) for 9 days. (A) MCF10A cells were first transduced using shRNA lentiviral constructs targeting the LUCIFERASE gene (shCt), AICDA gene (shAICDA) or TWIST1 gene (shTWIST1) mRNA and then treated with cytokines as indicated above. IL-17 (but no TNFα or TGFβ) induces EMT in ShCt and ShAICDA MCF10A characterized by loss of epithelial marker E-Cadherin (which, in color, fluoresces in green) and gain of mesenchymal marker Vimentin (which, in color, fluoresces in red) as assessed by immunofluorescence. […] (B) IL-17 (but no TNFα or TGFβ) induces EMT characterized by loss of epithelial markers E-Cadherin, α-Catenin and Occludin and gain of mesenchymal markers N-Cadherin and Vimentin as assessed by immunobloting. Actin was used as a loading control. (C) IL-17 enhances migratory (black bars) and invasive (white bars) abilities of MCF10A cells as assessed in Boyden chamber assays. (D-1 to D-3) IL-17 increases the number of CD24^low CD44^high stem cells in MCF10A cells. Flow cytometry assay showing CD24 and CD44 expression in untreated (NT) and IL-17-treated MCF10A cells (IL-17). Decreased CD24 and increased CD44 expression is indicative of normal stem cells. Red box indicates the stem cell population.
For transwell migration assay, 5·10^4 cells were plated in the top chamber with the non-coated membrane (24-well insert; pore size, […]; BD Biosciences). For invasion assay, 5·10^4 cells were plated in the top chamber with Matrigel-coated membrane (24-well insert; pore size, […]; BD Biosciences). In both assays, cells were plated in 1% serum medium, and 10% serum medium was used as a chemo-attractant in the lower chamber. The cells were incubated for 24 h. Cells that reached the lower chamber were stained with Giemsa and counted. Total number of migrating/invading cell was calculated by analyzing 5 fields per well in two independent experiments, that is 10 fields per condition.

MCF7 = test: CD24/CD44 flow cytometry (cancer stem cells), MCF7; type: cell-based, human; conditions: MCF7 upon IL-17 exposure; ~0% untreated (FIG. 17C)
Description: (§2) FIG. 17: IL-17 induces Epithelial to Mesenchymal Transition (EMT) in well differentiated and non-metastatic MCF7 breast cancer cells which increases MCF7 cancer cell migration, invasion and sternness. MCF7 cells were untreated (NT) or treated TGFβ (8 ng/mL) or IL-17 (10 ng/mL) for 9 days. (A) IL-17 (but not TGFβ) induces EMT characterized by loss of epithelial marker E-Cadherin (which, in color, fluoresces in green) and gain of mesenchymal marker Vimentin (which, in color, fluoresces in red) as assessed by immunofluorescence. (B) IL-17 enhances migratory (black bars) and invasive (white bars) abilities of MCF7 cancer cells as assessed in Boyden chamber assays. (C-1 to C-3) IL-17 increases the number of CD24^low CD44^high stem cells in MCF7 cancer cells. Flow cytometry assay showing CD24 and CD44 expression in untreated (NT) and IL-17-treated MCF7 cells (IL-17). Decreased CD24 and increased CD44 expression is indicative of cancer stem cells. Red box indicates the cancer stem cell population.
Expression of human IL-17R (FAB177P, R&D system), CD24 (BD Pharmingen) and CD44 (BD Pharmingen) was determined by flow cytometry on a FACSCalibur flow cytometer (BD Biosciences) and analyzed using FlowJo software (Tree star). The antibodies were used at 1/25, 1/100 and 1/100 respectively.

MCF7 breast cancer cells = test: Boyden chamber migration and invasion assays, MCF7; type: cell-based, human; conditions: MCF7, IL-17 10 ng/mL, stimulated (FIG. 17B)
Excerpt: as §2, with “MCF7 cells were untreated (NT) or treated TGFβ (8 ng/mL) or IL-17 (10 ng/mL) for 9 days.” left out
For transwell migration assay, 5·10^4 cells were plated in the top chamber with the non-coated membrane (24-well insert; pore size, […]; BD Biosciences). […] Cells that reached the lower chamber were stained with Giemsa and counted. Total number of migrating/invading cell was calculated by analyzing 5 fields per well in two independent experiments, that is 10 fields per condition.

MCF10A [3] = test: CD24/CD44 flow cytometry (stem cells), MCF10A; type: cell-based, human; conditions: MCF10A upon IL-17 exposure; ~16% untreated (FIG. 16D)
Description: as §1, with “Actin was used as a loading control.” left out, “(D-1 to D-3) IL-17 increases the number of CD24^low CD44^high stem cells in MCF10A cells. Flow cytometry assay showing CD24 and CD44 expression in untreated (NT) and IL-17-treated MCF10A cells (IL-17). Decreased CD24 and increased CD44 expression is indicative of normal stem cells. Red box indicates the stem cell population.” left out
Expression of human IL-17R (FAB177P, R&D system), CD24 (BD Pharmingen) and CD44 (BD Pharmingen) was determined by flow cytometry on a FACSCalibur flow cytometer (BD Biosciences) and analyzed using FlowJo software (Tree star). […]

For COc1cccc2c1C(=O)c1c(O)c3c(c(O)c1C2=O)C[C@@](O)(C(=O)CO)C[C@@H]3O[C@H]1C[C@H](N)[C@H](O)[C@H](C)O1 [doxorubicin], which “doxorubicin-induced apoptosis of B cell clones” value (B cell clones) is on record?
Its value is “remarkably resistant”.

Which “patients in whom treatment was effective” value ([1]; Rheumatoid Arthritis, 27% of patients who received placebo) does the source give for “AIN 457: human anti-IL-17 monoclonal antibody (Novartis)” here?
Its value is 46%.

What about the “safety / tolerability in RA patients” value ([1]; patients with RA) of the same molecule?
Its value is “safe”.

For Belimumab: humanized anti-BAFF antibody, which “biological activity in SLE patients” value (SLE patients) is on record?
The value was “biologically active”.

What about the “tolerability in SLE patients” value (SLE patients) of the same molecule?
Its value is “well tolerated”.

For “IL-17: recombinant IL-17 (PeproTech, ref 200-17)”, which “increase in ability to migrate in transwell migration assay” value (MCF10A [2]; IL-17 10 ng/mL, 9 days (FIG. 16C, black bars)) is on record?
The value was about 16 fold.

What about the “increase in invasive ability in Matrigel invasion assay” value (MCF10A [2]; IL-17 10 ng/mL, 9 days (FIG. 16C, white bars)) of the same molecule?
Its value is about 10 fold.

And the “percentage of CD24lowCD44high cancer stem cells” value (MCF7)?
Its value is 67%.

And the “increase in invasive ability” value (MCF7 breast cancer cells)?
Its value is about 10 fold.

And the “increase in migratory ability” value (MCF7 breast cancer cells)?
Its value is about 8 fold.

And the “percentage of CD24low/CD44high stem cells” value (MCF10A [3])?
The value was 71%.

For “LY2439821: humanized monoclonal antibody against IL-17A (Eli Lilly)”, which “efficacy compared to placebo” value ([1]; intravenous, certain doses, RA patients) is on record?
Its value is “statistically significantly more effective”.

What does the source list for “TGFβ: recombinant TGFβ (PeproTech, 100-21)”?
increase in cell invasion (MCF10A [2]): weak; increase in cell migration (MCF10A [2]): weak

What does the source list for TNFα?
increase in cell invasion (MCF10A [2]): no; increase in cell migration (MCF10A [2]): no
